In patent publication US8129417B2, “Substituted octahydrocyclopenta[C]pyrrol-4-amines as calcium channel blockers” (Abbott Laboratories, priority 2008, dated 2012):

molecular target: human Cav2.2 (Homo sapiens, UniProt Q00975); assay: Assessment of calcium channel activity using FLIPR (Ca2+ influx in IMR32 cells); assay type: cell-based; conditions: 3 minute pre-incubation with compound (*), 2 μM nifedipine, depolarized with 80 mM KCl
Procedure: (i) In Vitro Methods—Assessment of Calcium Channel Activity Using FLIPR:
The IMR32 cells were maintained in MEM media containing 10% (v/v) FBS, 1% (v/v) antibiotic/antimitotic, 1% (v/v) sodium pyruvate and 1% (v/v) MEM NEAA. Following dissociation in 0.05% (v/v) trypsin/EDTA, cells were seeded into black 1×96-well plates (Corning Cellbind) at a density of 1-1.2×10^5 cells/well and incubated in the maintenance media above for 48 hours at 37° C. […] To determine the IC50 values, the percent inhibition of the compound at each concentration was determined relative to the activity in the absence of inhibitor, and data was fitted using non-linear regression sigmoidal dose response curve analysis with GraphPad Prism®.

human Cav2.2, sequence (Q00975 whole entry): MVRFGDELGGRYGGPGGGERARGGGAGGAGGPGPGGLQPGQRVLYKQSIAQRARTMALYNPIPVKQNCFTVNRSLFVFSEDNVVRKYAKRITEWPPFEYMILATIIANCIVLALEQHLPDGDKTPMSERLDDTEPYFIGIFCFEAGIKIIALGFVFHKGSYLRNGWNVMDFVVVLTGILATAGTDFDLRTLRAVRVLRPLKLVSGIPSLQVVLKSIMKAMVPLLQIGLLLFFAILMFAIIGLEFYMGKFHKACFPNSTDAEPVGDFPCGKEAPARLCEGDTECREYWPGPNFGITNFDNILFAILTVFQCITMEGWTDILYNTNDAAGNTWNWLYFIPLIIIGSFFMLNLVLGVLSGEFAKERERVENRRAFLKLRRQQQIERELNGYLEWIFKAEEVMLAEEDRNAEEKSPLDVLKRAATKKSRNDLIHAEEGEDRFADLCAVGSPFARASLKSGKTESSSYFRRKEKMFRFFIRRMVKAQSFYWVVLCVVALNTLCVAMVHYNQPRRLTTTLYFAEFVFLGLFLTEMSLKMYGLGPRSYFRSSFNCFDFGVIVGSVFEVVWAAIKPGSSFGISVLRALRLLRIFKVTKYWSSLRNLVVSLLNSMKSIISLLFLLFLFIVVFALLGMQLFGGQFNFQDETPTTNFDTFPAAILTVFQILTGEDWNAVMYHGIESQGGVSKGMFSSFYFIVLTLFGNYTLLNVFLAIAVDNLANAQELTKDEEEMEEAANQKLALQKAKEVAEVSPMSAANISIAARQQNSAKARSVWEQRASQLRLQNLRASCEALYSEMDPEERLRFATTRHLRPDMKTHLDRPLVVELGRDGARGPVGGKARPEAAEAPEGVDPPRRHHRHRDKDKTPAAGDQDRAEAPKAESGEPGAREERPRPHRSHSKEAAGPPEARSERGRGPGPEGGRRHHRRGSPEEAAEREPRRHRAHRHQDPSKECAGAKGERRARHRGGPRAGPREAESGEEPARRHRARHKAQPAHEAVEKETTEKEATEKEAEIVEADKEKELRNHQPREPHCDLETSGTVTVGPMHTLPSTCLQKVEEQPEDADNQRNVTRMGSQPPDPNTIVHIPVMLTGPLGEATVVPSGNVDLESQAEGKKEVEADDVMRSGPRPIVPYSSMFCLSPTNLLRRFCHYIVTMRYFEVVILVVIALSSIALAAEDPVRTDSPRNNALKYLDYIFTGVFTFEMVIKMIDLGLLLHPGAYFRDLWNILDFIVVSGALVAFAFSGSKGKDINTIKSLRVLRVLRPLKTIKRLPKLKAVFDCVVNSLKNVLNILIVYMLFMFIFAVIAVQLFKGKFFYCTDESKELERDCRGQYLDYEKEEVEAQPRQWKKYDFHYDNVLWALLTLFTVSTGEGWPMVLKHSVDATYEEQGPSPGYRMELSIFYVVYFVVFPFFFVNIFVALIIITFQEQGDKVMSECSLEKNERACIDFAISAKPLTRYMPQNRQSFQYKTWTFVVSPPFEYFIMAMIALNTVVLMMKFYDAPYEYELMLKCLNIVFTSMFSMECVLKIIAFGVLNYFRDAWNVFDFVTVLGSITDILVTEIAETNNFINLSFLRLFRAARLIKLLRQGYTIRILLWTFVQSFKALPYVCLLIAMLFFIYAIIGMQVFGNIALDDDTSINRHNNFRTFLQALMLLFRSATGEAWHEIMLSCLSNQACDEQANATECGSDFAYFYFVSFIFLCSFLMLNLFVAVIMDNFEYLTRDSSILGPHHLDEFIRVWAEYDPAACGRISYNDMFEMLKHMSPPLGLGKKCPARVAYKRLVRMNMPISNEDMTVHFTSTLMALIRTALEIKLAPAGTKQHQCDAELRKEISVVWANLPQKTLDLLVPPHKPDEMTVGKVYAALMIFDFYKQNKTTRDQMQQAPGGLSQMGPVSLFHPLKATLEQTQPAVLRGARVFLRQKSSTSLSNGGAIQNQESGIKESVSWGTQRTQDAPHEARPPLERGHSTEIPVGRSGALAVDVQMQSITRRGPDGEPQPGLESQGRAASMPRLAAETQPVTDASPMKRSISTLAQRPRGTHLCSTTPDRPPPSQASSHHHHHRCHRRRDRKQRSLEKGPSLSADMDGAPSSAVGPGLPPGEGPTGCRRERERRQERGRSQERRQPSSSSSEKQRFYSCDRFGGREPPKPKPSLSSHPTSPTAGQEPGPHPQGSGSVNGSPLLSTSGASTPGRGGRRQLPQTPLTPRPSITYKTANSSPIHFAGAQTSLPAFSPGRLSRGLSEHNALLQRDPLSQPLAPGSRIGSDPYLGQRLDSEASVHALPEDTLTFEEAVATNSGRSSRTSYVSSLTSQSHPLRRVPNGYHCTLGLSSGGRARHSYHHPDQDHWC
human Cav2.2, sequence (P54289 25-946 partner limits assumed): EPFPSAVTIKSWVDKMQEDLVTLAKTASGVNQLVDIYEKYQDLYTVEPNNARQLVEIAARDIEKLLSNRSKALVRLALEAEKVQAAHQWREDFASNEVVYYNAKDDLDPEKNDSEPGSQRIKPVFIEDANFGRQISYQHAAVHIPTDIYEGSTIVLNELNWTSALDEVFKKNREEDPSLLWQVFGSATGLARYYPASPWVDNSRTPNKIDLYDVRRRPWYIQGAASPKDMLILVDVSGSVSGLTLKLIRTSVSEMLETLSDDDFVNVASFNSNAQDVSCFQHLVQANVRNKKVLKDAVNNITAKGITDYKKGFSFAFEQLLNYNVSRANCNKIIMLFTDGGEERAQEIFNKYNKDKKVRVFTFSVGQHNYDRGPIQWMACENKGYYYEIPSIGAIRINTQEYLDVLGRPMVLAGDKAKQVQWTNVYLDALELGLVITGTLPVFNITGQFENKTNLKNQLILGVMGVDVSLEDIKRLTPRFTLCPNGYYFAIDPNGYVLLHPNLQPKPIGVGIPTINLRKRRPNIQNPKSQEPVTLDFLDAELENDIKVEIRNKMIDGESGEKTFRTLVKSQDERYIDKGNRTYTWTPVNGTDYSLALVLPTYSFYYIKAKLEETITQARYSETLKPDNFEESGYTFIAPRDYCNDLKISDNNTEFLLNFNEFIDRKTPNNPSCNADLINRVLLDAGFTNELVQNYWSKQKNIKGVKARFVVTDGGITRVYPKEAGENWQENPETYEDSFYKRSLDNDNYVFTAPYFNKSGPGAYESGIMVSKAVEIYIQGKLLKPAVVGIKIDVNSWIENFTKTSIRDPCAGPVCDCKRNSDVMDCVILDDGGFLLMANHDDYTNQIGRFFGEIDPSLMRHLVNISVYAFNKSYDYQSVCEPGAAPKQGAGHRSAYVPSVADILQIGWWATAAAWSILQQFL
human Cav2.2, sequence (P54289 947-1103 partner limits assumed): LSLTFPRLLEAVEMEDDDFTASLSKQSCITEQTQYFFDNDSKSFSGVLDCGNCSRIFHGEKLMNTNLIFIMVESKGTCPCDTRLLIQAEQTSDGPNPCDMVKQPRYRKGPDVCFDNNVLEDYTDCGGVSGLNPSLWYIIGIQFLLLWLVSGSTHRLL
human Cav2.2, sequence (P54284 whole entry partner): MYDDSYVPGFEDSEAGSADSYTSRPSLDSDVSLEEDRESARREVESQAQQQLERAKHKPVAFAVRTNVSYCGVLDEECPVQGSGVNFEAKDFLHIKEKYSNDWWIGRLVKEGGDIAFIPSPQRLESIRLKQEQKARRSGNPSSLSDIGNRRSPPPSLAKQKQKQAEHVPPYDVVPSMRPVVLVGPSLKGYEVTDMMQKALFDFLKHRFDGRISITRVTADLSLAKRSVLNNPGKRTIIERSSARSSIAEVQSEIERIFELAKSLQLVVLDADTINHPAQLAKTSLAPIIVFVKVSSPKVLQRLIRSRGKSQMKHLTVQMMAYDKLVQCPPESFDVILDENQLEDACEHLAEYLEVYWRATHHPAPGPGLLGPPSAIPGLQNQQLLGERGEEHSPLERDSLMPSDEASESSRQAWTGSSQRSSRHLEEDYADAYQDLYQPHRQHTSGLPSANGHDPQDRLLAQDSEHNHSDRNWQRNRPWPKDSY

SMILES | IC50
CC(C)C(C(=O)N[C@@H]1CC[C@@H]2CN(Cc3ccccc3)C[C@@H]21)c1ccccc1 (relative stereo) [Example 5, N-[(3aR*,4R*,6aS*)-2-benzyloctahydrocyclopenta[c]pyrrol-4-yl]-3-methyl-2-phenylbutanamide] | 3800 nM
CC(C)C(C(=O)N[C@H]1CC[C@@H]2CN(Cc3ccccc3)C[C@@H]21)c1ccccc1 (relative stereo) [Example 6, N-[(3aR*,4S*,6aS*)-2-benzyloctahydrocyclopenta[c]pyrrol-4-yl]-3-methyl-2-phenylbutanamide] | 2200 nM
O=C(N[C@H]1CC[C@H]2CN(Cc3ccccc3)C[C@H]21)C(c1ccccc1)C1CCCC1 (relative stereo) [Example 7, N-[(3aS*,4S*,6aR*)-2-benzyloctahydrocyclopenta[c]pyrrol-4-yl]-2-cyclopentyl-2-phenylacetamide] | 1800 nM

The next lines start with the values.

IC50 | SMILES
3500 nM | O=C(N[C@H]1CC[C@H]2CN(Cc3ccccc3)C[C@H]21)C1(c2ccccc2)CCCC1 (relative stereo) [Example 1, N-[(3aS*,4S*,6aR*)-2-benzyloctahydrocyclopenta[c]pyrrol-4-yl]-1-phenylcyclopentanecarboxamide]
4200 nM | O=C(N[C@@H]1CC[C@H]2CN(Cc3ccccc3)C[C@H]21)C1(c2ccccc2)CCCC1 (relative stereo) [Example 2, N-[(3aS*,4R*,6aR*)-2-benzyloctahydrocyclopenta[c]pyrrol-4-yl]-1-phenylcyclopentanecarboxamide]
1800 nM | O=C(N[C@H]1CC[C@H]2CN(Cc3ccccc3)C[C@H]21)C1(c2ccccc2)CCCCC1 (relative stereo) [Example 9, N-[(3aS*,4S*,6aR*)-2-benzyloctahydrocyclopenta[c]pyrrol-4-yl]-1-phenylcyclohexanecarboxamide]
1300 nM | O=C(N[C@@H]1CC[C@H]2CN(Cc3ccccc3)C[C@H]21)C1(c2ccccc2)CCCCC1 (relative stereo) [Example 10, N-[(3aS*,4R*,6aR*)-2-benzyloctahydrocyclopenta[c]pyrrol-4-yl]-1-phenylcyclohexanecarboxamide]

same assay, conditions: 60 minute pre-incubation with compound, 2 μM nifedipine, depolarized with 80 mM KCl

IC50 | SMILES
4000 nM | O=C(N[C@H]1CC[C@H]2CN(Cc3ccccc3)C[C@H]21)C(C1CCCCC1)C1CCCCC1 (relative stereo) [Example 11, N-[(3aS*,4S*,6aR*)-2-benzyloctahydrocyclopenta[c]pyrrol-4-yl]-2,2-dicyclohexylacetamide]
600 nM | CC(C)C(C(=O)N[C@H]1CC[C@H]2CN(Cc3cccc(C(F)(F)F)c3)C[C@H]21)c1ccccc1 (relative stereo) [Example 122, 3-methyl-2-phenyl-N-{(3aS*,4S*,6aR*)-2-[3-(trifluoromethyl)benzyl]octahydrocyclopenta[c]pyrrol-4-yl}butanamide]
700 nM | O=C(N[C@H]1CC[C@H]2CN(Cc3cccc(C(F)(F)F)c3)C[C@H]21)C(C1CCCCC1)C1CCCCC1 (relative stereo) [Example 124, 2,2-dicyclohexyl-N-{(3aS*,4S*,6aR*)-2-[3-(trifluoromethyl)benzyl]octahydrocyclopenta[c]pyrrol-4-yl}acetamide]
2800 nM | CCC(CC)C(=O)N[C@H]1CC[C@H]2CN(Cc3cccc(C(F)(F)F)c3)C[C@H]21 (relative stereo) [Example 125, 2-ethyl-N-{(3aS*,4S*,6aR*)-2-[3-(trifluoromethyl)benzyl]octahydrocyclopenta[c]pyrrol-4-yl}butanamide]
1000 nM | CCCC(CCC)C(=O)N[C@H]1CC[C@H]2CN(Cc3cccc(C(F)(F)F)c3)C[C@H]21 (relative stereo) [Example 126, 2-propyl-N-{(3aS*,4S*,6aR*)-2-[3-(trifluoromethyl)benzyl]octahydrocyclopenta[c]pyrrol-4-yl}pentanamide]

same assay, conditions: IMR-32, @ 10 μM, 60 minute pre-incubation, read-out: percent inhibition

inhibition at 10 µM | SMILES
91% | O=C(N[C@@H]1CC[C@@H]2CN(Cc3ccccc3)C[C@@H]21)C(c1ccccc1)C1CCCCC1 (relative stereo) [Example 3, N-[(3aR*,4R*,6aS*)-2-benzyloctahydrocyclopenta[c]pyrrol-4-yl]-2-cyclohexyl-2-phenylacetamide]
